US20180353462A1, “[…] AGENTS […] FLAVONOID DERIVATIVES TARGETING KINASES, SIRTUINS AND ONCOGENIC AGENTS FOR THE TREATMENT OF CANCERS” (priority 2015, published 2018)
Like-named read-outs stand apart in the source and are kept apart here.

Tests used:
FLT3(D835Y) = biological target: T1, FLT3(D835Y) (Homo sapiens, UniProt P36888, D835Y); format: binding
T1 construct: made in house
T1 sequence (P36888 27-993 D835Y): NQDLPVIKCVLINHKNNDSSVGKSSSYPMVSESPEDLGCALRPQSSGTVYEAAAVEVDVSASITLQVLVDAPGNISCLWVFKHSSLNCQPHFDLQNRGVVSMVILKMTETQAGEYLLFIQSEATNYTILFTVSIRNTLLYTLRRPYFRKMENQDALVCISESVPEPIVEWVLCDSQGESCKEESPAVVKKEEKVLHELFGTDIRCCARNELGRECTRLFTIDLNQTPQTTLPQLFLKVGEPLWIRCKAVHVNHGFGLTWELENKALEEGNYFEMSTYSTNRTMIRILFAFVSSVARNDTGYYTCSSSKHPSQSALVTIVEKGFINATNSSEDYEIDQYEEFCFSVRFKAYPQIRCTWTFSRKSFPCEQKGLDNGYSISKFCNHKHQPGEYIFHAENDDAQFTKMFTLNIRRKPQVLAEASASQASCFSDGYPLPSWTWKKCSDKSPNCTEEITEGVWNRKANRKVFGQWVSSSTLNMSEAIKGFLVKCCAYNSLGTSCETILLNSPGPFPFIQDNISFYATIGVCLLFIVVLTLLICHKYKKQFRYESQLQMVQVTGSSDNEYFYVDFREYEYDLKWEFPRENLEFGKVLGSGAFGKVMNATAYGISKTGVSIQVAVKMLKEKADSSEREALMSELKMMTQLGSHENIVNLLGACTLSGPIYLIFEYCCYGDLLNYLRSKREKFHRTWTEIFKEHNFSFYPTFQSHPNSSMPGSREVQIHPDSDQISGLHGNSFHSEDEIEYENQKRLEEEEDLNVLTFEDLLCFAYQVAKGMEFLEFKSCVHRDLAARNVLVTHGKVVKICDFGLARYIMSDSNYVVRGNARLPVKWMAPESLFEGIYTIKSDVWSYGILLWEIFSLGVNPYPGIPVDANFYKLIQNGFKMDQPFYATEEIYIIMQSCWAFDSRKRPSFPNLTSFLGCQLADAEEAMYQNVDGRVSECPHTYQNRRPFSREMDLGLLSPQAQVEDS
Description: (§1) Cannabis flavonoids and their analogs were subjected to kinase inhibition assay. The compounds were first screened at a single concentration of 10 μM in the primary assay. […] To determine the kd or IC50 values, competition binding assays were established, authenticated and executed as described previously. […] See also, Karaman et al., “A Quantitative Analysis Of Kinase Inhibitor Selectivity”, Nat. Biotechnol. […] For most assays, kinases were fused to T7 phage strains (Fabian, supra) and for the other assays, kinases were produced in HEK-293 cells after which they were tagged with DNA for quantitative PCR detection. In general, full-length constructs were used for small, single domain kinases, and catalytic domain constructs for large multi-domain kinases. […] The liganded beads were blocked with excess biotin and washed with blocking buffer (SeaBlock (Pierce), 1% BSA, 0.05% Tween 20, 1 mM DTT) to remove unbound ligand and to reduce non-specific phage binding. […] All reactions were performed in polypropylene 384-well plates in a final volume of 0.04 ml. […] The kinase concentration in the eluates was measured by quantitative PCR. An illustration of the kinase interaction process is presented below. Kd/IC50 values were determined using a standard dose response curve using the hill equation. Curves were fitted using a non-linear least square fit with the Levenberg-Marquardt algorithm.

FLT3(ITD) = biological target: T2, FLT3(ITD) (Homo sapiens, UniProt P36888); format: binding
T2 construct: In general, full-length constructs were used for small, single domain kinases, and catalytic domain constructs for large multi-domain kinases; fused on or other part: T7 phage fusion or DNA tag for qPCR detection (general statement)
T2 sequence (P36888 1-993): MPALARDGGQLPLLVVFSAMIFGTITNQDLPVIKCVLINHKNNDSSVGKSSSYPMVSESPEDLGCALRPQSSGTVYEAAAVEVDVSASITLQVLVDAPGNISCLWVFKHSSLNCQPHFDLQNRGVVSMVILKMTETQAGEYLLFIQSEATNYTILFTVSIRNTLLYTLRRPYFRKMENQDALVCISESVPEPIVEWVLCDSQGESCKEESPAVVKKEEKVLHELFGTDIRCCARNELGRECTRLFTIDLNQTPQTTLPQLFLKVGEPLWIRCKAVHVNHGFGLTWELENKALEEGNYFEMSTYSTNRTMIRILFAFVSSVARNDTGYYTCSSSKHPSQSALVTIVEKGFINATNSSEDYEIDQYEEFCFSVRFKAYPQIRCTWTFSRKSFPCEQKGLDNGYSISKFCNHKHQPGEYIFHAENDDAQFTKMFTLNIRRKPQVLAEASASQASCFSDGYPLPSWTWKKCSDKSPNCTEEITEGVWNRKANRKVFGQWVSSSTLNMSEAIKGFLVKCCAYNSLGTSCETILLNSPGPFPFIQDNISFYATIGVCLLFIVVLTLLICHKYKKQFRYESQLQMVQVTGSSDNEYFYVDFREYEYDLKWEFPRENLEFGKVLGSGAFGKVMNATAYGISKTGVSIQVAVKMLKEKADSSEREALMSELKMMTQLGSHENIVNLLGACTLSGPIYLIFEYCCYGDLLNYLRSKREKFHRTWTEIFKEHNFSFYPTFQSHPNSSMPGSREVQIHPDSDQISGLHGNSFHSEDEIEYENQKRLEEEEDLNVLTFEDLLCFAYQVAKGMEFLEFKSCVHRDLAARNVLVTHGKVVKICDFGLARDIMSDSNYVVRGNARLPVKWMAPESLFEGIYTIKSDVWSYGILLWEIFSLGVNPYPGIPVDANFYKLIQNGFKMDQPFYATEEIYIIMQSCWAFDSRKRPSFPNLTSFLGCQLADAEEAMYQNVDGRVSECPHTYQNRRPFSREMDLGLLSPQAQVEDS
Description: as §1

[1] = Table 1 kinase panel, read-out: IC50 (nM) FLT3(D835Y)
[2] = Table 1 kinase panel, read-out: IC50 (nM) FLT3(ITD)
[3] = Table 4, read-out: Acute Myeloid Leukemia Kinases FLT3-D835Y IC50
[4] = Table 4, read-out: Acute Myeloid Leukemia Kinases FLT3-ITD IC50

SMILES	IC50 (FLT3(D835Y); [1]) [nM]	IC50 (FLT3(ITD); [2]) [nM]	IC50 (FLT3(D835Y); [3]) [nM]	IC50 (FLT3(ITD); [4]) [nM]
COc1cc(-c2cc(=O)c3c(O)c(C/C=C(\C)CCC=C(C)C)c(O)cc3o2)ccc1O [FBL-03A]	> 20000	> 20000		
COc1cc(-c2cc(=O)c3c(O)c(CC=C(C)C)c(O)cc3o2)ccc1O [FBL-03B]	12.7	57		
COc1cc(-c2cc(=O)c3c(O)cc(O)c(C/C=C(\C)CCC=C(C)C)c3o2)ccc1O [FBL-03C]	> 20000	> 20000		
COc1ccc(-c2cc(=O)c3c(O)c(C/C=C(\C)CCC=C(C)C)c(O)cc3o2)cc1OC [FBL-03D]	> 30000	> 30000		
COc1cc(-c2cc(=O)c3c(O)cc(O)c(CC=C(C)C)c3o2)ccc1O [FBL-03G]	45	< 1000		
COc1ccc(C2CC(=O)c3c(O)cc(O)cc3O2)cc1O (stereo not drawn) [FBLGS-74]			8580	9090
O=c1cc(-c2ccccc2)oc2cc(O)cc(O)c12 [FBLGS-75]			76	91
Cc1cc2oc(-c3cccc(N)c3)cc(=O)c2c([N+](=O)[O-])c1C [FBLGS-76]			680	750
O=c1cc(-c2ccc(O)c(O)c2)oc2cc(O)cc(O)c12 [FBLGS-77]			577	799
COc1cc(O)c2c(=O)c(O)c(-c3ccc(O)c(O)c3)oc2c1 [FBLGS-78]			149	345
COc1cc(O)c2c(=O)c(O)c(-c3ccc(O)c(O)c3)oc2c1 [FBLGS-79]			13	84
COc1cc(O)c2c(=O)c(O)c(-c3ccc(O)c(OC)c3)oc2c1 [FBLGS-80]			27	84
COc1cc(-c2oc3cc(O)ccc3c(=O)c2O)ccc1O [FBLGS-81]			0.9	3.8
O=C1CC(c2ccc(O)c(O)c2)Oc2cc(O)cc(O)c21 (stereo not drawn) [FBLGS-82]			11000	12100
O=c1c(O)c(-c2ccc(O)c(O)c2)oc2cc(O)ccc12 [FBLGS-83]			82	180
O=c1c(O)c(-c2ccc(O)c(O)c2)oc2cc(O)cc(O)c12 [FBLGS-84]			194	453
COc1cc(-c2cc(=O)c3c(O)c(OC)c(OC)cc3o2)ccc1O [FBLGS-85]			22	57
COc1cc(-c2cc(=O)c3c(O)c(OC)c(O)cc3o2)ccc1O [FBLGS-86]			43	45
